Assay [1] concerns the target T1, SHP-2 enzyme (Met1-Leu525) (Homo sapiens, UniProt Q06124).
T1 construct: synthetized by Origene, Met1-Leu525, cat #TP750155; purchased Origene TP750155
T1 sequence (Q06124 1-525): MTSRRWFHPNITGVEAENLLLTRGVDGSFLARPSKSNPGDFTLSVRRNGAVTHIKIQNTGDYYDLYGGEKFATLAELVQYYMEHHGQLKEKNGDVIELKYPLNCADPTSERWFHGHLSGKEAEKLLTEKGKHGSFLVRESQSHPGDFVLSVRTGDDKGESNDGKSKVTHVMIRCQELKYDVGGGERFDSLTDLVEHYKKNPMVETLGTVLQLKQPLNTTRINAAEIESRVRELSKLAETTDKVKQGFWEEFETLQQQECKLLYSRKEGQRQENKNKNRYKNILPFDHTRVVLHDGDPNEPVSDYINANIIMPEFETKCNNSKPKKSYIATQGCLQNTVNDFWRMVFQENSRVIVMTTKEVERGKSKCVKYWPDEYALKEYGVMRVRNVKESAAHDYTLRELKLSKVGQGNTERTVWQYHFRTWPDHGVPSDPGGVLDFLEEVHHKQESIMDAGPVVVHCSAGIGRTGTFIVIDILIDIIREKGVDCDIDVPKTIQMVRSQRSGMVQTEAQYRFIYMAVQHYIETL
The experiment in a line: SHP2 inhibition enzymatic assay (DiFMUP substrate, IRS1 peptide activation). The settings on record: SHP2 wt; activated by 500 nM IRS1 peptide; 75 μM DiFMUP substrate. In kind it is biochemical. In short, it runs like this:
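SHP-2 (Met1-Leu525, 0.5 nM final) preincubated 30 min with compounds and IRS1 activating peptide in HEPES pH 7.2 buffer with NaCl, KCl, EDTA, tween-20, 5 mM DTT. DiFMUP then added for 30 min at room temperature and fluorescence read. IC50 from four-parameter logistic fit of % inhibition.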

Assay [2] has as its system ERK phosphorylation in KYSE-520 cells. The experiment in a line: Phospho-ERK cellular assay (Advanced phospho-ERK1/2 (Thr202/Tyr204) TR-FRET kit). In kind it is cell-based. The settings on record: Homo sapiens, KYSE-520, 2 h, read-out: pERK IC50. A digest of the protocol:
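IC50 values are inflection points of four-parameter logistic fits of percent activity against compound dilution. Compound exposure lasted 2 h at 37° C in KYSE-520 cells. Lysates were probed overnight with Eu-cryptate/d2 antibodies to ERK1/2 phosphorylated at Thr202/Tyr204, so reduced TR-FRET indicates SHP2 inhibition.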

The mark [3] stands for this setting: KYSE-520 cells, 2 h at 37° C., TR-FRET.

pIC50: −log10 of the molar value. Where two headings read alike, the source gives them in different places.

Broadly, the pIC50 is the IC50 on a negative log10 scale, so that one unit is a factor of ten. On to `N[C@@H]1c2ccccc2CC12CCN(c1nc3nc(Sc4ccnnc4Cl)cnc3[nH]1)CC2` [Example 247, (S)-1′-(5-((3-chloropyridazin-4-yl)thio)-1H-imidazo[4,5-b]pyrazin-2-yl)-1,3-dihydrospiro[indene-2,4′-piperidin]-1-amine], for which the pIC50 in assay [1] was above 6.30; in assay [2] (setting [3]), above 6.00.
On to `N[C@@H]1c2ccccc2CC12CCN(c1nc3nc(Sc4cccc5c4C(F)(F)C(=O)N5)cnc3[nH]1)CC2` [Example 162, (S)-4-((2-(1-amino-1,3-dihydrospiro[indene-2,4′-piperidin]-1′-yl)-1H-imidazo[4,5-b]pyrazin-5-yl)thio)-3,3-difluoroindolin-2-one], for which the pIC50 in assay [1] is above 6.30; in assay [2] (setting [3]), above 6.00.
The matching figures for `CN1C(=O)COc2c(Sc3cnc4nc(N5CCC6(CC5)Cc5ccccc5[C@H]6N)[nH]c4n3)cccc21` [Example 173, (S)-8-((2-(1-amino-1,3-dihydrospiro[indene-2,4′-piperidin]-1′-yl)-1H-imidazo[4,5-b]pyrazin-6-yl)thio)-4-methyl-2H-benzo[b][1,4]oxazin-3(4H)-one]: above 6.30 and 5.30 to 6.00.
As to `CC1(N)CCN(c2nc3nc(Sc4cccc5nccnc45)cnc3[nH]2)CC1` [Example 71, 4-methyl-1-(5-(quinoxalin-5-ylthio)-1H-imidazo[4,5-b]pyrazin-2-yl)piperidin-4-amine], the pIC50 is above 6.30 in assay [1] and 5.30 to 6.00 in assay [2] (setting [3]).
With `N[C@H]1c2ccccc2CC12CCN(c1nc3nc(Sc4cccnc4C(F)(F)F)cnc3[nH]1)CC2` [Example 149, (R)-1′-(5-((2-(trifluoromethyl)pyridin-3-yl)thio)-1H-imidazo[4,5-b]pyrazin-2-yl)-1,3-dihydrospiro[indene-2,4′-piperidin]-1-amine], the negative logarithm of the IC50 (pIC50) is above 6.30 in assay [1] and 5.30 to 6.00 in assay [2].
For `N[C@@H]1c2ccccc2CC12CCN(c1cc3nc(Sc4cccc(Cl)c4Cl)cnc3[nH]1)CC2` [Example 243, (S)-1′-(2-((2,3-dichlorophenyl)thio)-5H-pyrrolo[2,3-b]pyrazin-6-yl)-1,3-dihydrospiro[indene-2,4′-piperidin]-1-amine], the negative-log IC50 (pIC50) in assay [1] is above 6.30; in assay [2] (setting [3]), above 6.00.
The matching figures for `N[C@H]1c2ccncc2CC12CCN(c1nc3nc(Sc4ccnc(NC5CC5)c4Cl)cnc3[nH]1)CC2` [Example 197, (R)-1′-(5-((3-chloro-2-(cyclopropylamino)pyridin-4-yl)thio)-1H-imidazo[4,5-b]pyrazin-2-yl)-5,7-dihydrospiro[cyclopenta[c]pyridine-6,4′-piperidin]-5-amine]: above 6.30 and 5.30 to 6.00.
As to `N[C@@H]1c2cccnc2CC12CCN(c1nc3nc(Sc4ccnc(Cl)c4C(F)(F)F)cnc3[nH]1)CC2` [Example 262, (S)-1′-(5-((2-chloro-3-(trifluoromethyl)pyridin-4-yl)thio)-1H-imidazo[4,5-b]pyrazin-2-yl)-5,7-dihydrospiro[cyclopenta[b]pyridine-6,4′-piperidin]-5-amine], the negative-log IC50 (pIC50) is above 6.30 in assay [1] and above 6.00 in assay [2] (setting [3]).
As to `N[C@@H]1c2cc(F)ccc2CC12CCN(c1nc3nc(Sc4cccn5ccnc45)cnc3[nH]1)CC2` [Example 192, (S)-6-fluoro-1′-(5-(imidazo[1,2-a]pyridin-8-ylthio)-1H-imidazo[4,5-b]pyrazin-2-yl)-1,3-dihydrospiro[indene-2,4′-piperidin]-1-amine], the results for the pIC50 in assay [1] and in assay [2] (setting [3]) were above 6.30 and 5.30 to 6.00, respectively.
The matching figures for `CN1C(=O)C(F)(F)c2c(Sc3cnc4[nH]c(N5CCC6(CC5)Cc5ccccc5[C@H]6N)nc4n3)cccc21` [Example 134, (S)-4-((2-(1-amino-1,3-dihydrospiro[indene-2,4′-piperidin]-1′-yl)-1H-imidazo[4,5-b]pyrazin-5-yl)thio)-3,3-difluoro-1-methylindolin-2-one]: above 6.30 and above 6.00.
Take `N[C@@H]1c2ccccc2CC12CCN(c1nc3nc(Sc4cnc5ccccn5c4=O)cnc3[nH]1)CC2` [Example 221, (S)-3-((2-(1-amino-1,3-dihydrospiro[indene-2,4′-piperidin]-1′-yl)-1H-imidazo[4,5-b]pyrazin-5-yl)thio)-4H-pyrido[1,2-a]pyrimidin-4-one]: the pIC50 in assay [1] was 5.52 to 6.30; in assay [2] (setting [3]) it was 5.30 to 6.00.
For `N[C@@H]1c2ccccc2CC12CCN(c1nc3ncc(Sc4ccnc5nccnc45)nc3[nH]1)CC2` [Example 194, (S)-1′-(6-(pyrido[2,3-b]pyrazin-8-ylthio)-1H-imidazo[4,5-b]pyrazin-2-yl)-1,3-dihydrospiro[indene-2,4′-piperidin]-1-amine], the pIC50 was above 6.30 in assay [1] and above 6.00 in assay [2] (setting [3]).
The matching figures for `Cn1cc2c(n1)CC1(CCN(c3nc4nc(Sc5ccnc(N)c5Cl)cnc4[nH]3)CC1)C2N` (centres unmarked) [Example 233, 1′-(5-((2-amino-3-chloropyridin-4-yl)thio)-1H-imidazo[4,5-b]pyrazin-2-yl)-2-methyl-2,6-dihydro-4H-spiro[cyclopenta[c]pyrazole-5,4′-piperidin]-4-amine]: above 6.30 and above 6.00.
Consider `Cn1ccc(Sc2cnc3nc(N4CCC5(CC4)Cc4ccccc4[C@H]5N)[nH]c3n2)c(Cl)c1=O` [Example 166, (S)-4-((2-(1-amino-1,3-dihydrospiro[indene-2,4′-piperidin]-1′-yl)-1H-imidazo[4,5-b]pyrazin-6-yl)thio)-3-chloro-1-methylpyridin-2(1H)-one], for which the values for the pIC50 in assay [1] and in assay [2] (setting [3]) were above 6.30 and above 6.00, respectively.
With `N[C@@H]1c2ccccc2CC12CCN(c1nc3ncc(Sc4cccc5[nH]c(=O)oc45)nc3[nH]1)CC2` [Example 178, (S)-7-((2-(1-amino-1,3-dihydrospiro[indene-2,4′-piperidin]-1′-yl)-1H-imidazo[4,5-b]pyrazin-6-yl)thio)benzo[d]oxazol-2(3H)-one], the pIC50 in assay [1] is above 6.30; in assay [2] (setting [3]), 5.30 to 6.00.
Take `N[C@@H]1c2ccccc2CC12CCN(c1nc3nc(Sc4cccc5c4OCC(=O)N5)cnc3[nH]1)CC2` [Example 157]: the values for the pIC50 in assay [1] and in assay [2] (setting [3]) were above 6.30 and below 5.30, respectively.
Consider `N[C@@H]1c2ccccc2CC12CCN(c1nc3nc(Sc4cncnc4C(F)(F)F)cnc3[nH]1)CC2` [Example 156, (S)-1′-(5-((4-(trifluoromethyl)pyrimidin-5-yl)thio)-1H-imidazo[4,5-b]pyrazin-2-yl)-1,3-dihydrospiro[indene-2,4′-piperidin]-1-amine], for which the pIC50 was above 6.30 in assay [1] and below 5.30 in assay [2] (setting [3]).
As to `Nc1nccc(Sc2cnc3[nH]c(N4CCC5(CC4)Cc4ccccc4[C@H]5N)nc3n2)c1F` [Example 222, (S)-1′-(5-((2-amino-3-fluoropyridin-4-yl)thio)-1H-imidazo[4,5-b]pyrazin-2-yl)-1,3-dihydrospiro[indene-2,4′-piperidin]-1-amine], the pIC50 in assay [1] is above 6.30; in assay [2] (setting [3]) it was below 5.30.
As to `COc1cc2c(cc1F)[C@@H](N)C1(CCN(c3nc4ncc(Sc5ccncc5Cl)nc4[nH]3)CC1)C2` [Example 186, (S)-1′-(6-((3-chloropyridin-4-yl)thio)-1H-imidazo[4,5-b]pyrazin-2-yl)-6-fluoro-5-methoxy-1,3-dihydrospiro[indene-2,4′-piperidin]-1-amine], the pIC50 in assay [1] is above 6.30; in assay [2] (setting [3]) it was above 6.00.

Values taken from patent US20220289753A1, “SHP2 INHIBITORS” (IRBM S.P.A., priority 2019, published 2022).
